Patent US8518942B2, “Caspase inhibitors and uses thereof” (Buck Institute for Research on Aging, priority 2008, dated 2013)

Experiments:
Assay type in all cases: biochemical
caspase-8 = target: T1, caspase-8 (Homo sapiens, UniProt Q14790); test: Irreversible inhibitor kinetic assay (progress curve), caspase-8, substrate Ac-DEVD-AMC; details: casp-8; duplicate, SD included
T1 construct: gift: Guy Salvesen's laboratory, Burnham Institute (La Jolla, Calif.)
Description: (§1) Caspases-3, -6, -7, -8, and -9 were provided by Guy Salvesen's laboratory at the Burnham Institute (La Jolla, Calif.). Caspase-1 was purchased from EMD Biosciences (San Diego, Calif.) and Caspase-2 was purchased from Biomol International (Plymouth Meeting, Pa.). Caspase substrates Ac-DEVD-AMC, Ac-VDVAD-AFC, and Ac-LEHD-AFC were purchased from EMD Biosciences (San Diego, Calif.) and Ac-VDVAD-AMC was purchased from Biomol International (Plymouth Meeting, Pa.). The proteolytic cleavage of N-acyl aminocoumarins by caspases was conducted in Dynatech Microfluor fluorescence 96-well microtiter plates, and readings were taken on a Molecular Devices Spectra Max Gemini XS instrument. The excitation wavelength was 370 nm and the emission wavelength was 455 nm for AMCA substrates, the excitation wavelength was 355 nm and the emission wavelength was 450 nm for peptidyl AMC substrates, and the excitation wavelength was 430 nm and the emission wavelength was 535 nm for peptidyl AFC substrates.
(§2) The kinact/Ki for inhibitors were determined under pseudo-first order conditions using the progress curve method (Eckici et al. (2006) J. Med. Chem., 49: 5728-5749; Bieth (1995) Meth. Enzymol., 248: 59-84). Assay wells contained a mixture of inhibitor and AMC or AFC substrate in buffer. Aliquots of caspase were added to each well to initiate the assay. Hydrolysis of the AMC or AFC substrate was monitored fluorometrically for 45 min. To determine the inhibition parameters, time points for which the control ([I]=0) was linear were used. For each inhibitor, a kobs was calculated for at least four different concentrations of inhibitors via a nonlinear regression of the data according to the equation P=(vi/kobs)[1−exp(−kobst) (where product formation=P, […], and the first-order rate constant=kobs). If kobs varied linearly with [I], then the association constant kass was determined by linear regression analysis using kobs=(kass[I])/(1+[S]/Km) where [S] is the concentration of the substrate. […] Inhibition was measured in duplicate and the average of is reported. […]

Caspase 3 = target: T2, Caspase 3 (Homo sapiens, UniProt P42574); test: Blots of full-length huntingtin (23Q & 148Q) treated with Caspase 3 plus inhibitor; details: for Proteolysis of Htt at amino acid 513 (caspase-3 site): 1-100 nM; for Inhibition of Caspase 3 cleavage of full-length huntingtin (blot): 23Q & 148Q, at 0.1 μM, 1.0 μM and 10 μM; for Blocking the cleavage of Htt at amino acid 513 mediated by caspase-3: conclusion
T2 sequence (P42574 29-175 limits assumed): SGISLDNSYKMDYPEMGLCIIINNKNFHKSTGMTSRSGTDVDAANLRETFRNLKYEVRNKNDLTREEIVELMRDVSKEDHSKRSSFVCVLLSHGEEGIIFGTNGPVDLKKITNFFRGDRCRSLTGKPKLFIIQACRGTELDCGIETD
T2 sequence (P42574 176-277 limits assumed): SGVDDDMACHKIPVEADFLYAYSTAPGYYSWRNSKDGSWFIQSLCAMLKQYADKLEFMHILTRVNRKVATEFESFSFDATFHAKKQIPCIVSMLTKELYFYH

caspase-6 = target: T3, caspase-6 (Homo sapiens, UniProt P55212); test: Irreversible inhibitor kinetic assay (progress curve), caspase-6, substrate Ac-DEVD-AMC; details: casp-6; duplicate, SD included
T3 construct: gift: Guy Salvesen's laboratory, Burnham Institute (La Jolla, Calif.)
T3 sequence (P55212 24-179 limits assumed): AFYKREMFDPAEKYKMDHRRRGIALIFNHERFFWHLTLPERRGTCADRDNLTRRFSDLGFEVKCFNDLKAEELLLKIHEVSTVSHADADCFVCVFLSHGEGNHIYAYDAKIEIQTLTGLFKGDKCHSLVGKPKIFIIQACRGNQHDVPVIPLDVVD
T3 sequence (P55212 194-293 limits assumed): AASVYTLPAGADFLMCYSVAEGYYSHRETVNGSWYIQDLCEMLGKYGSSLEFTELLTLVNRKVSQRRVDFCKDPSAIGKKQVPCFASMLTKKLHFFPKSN
Description: as §1, §2

caspase-2 = target: T4, caspase-2 (Homo sapiens, UniProt P42575); test: Blots of full-length huntingtin (23Q & 148Q) treated with caspase-2 plus inhibitor; details: for Inhibition of caspase-2 cleavage of full-length huntingtin (blot): 23Q & 148Q, at the higher concentration of 10 μM; for Caspase-2 cleavage of Htt: conclusion
T4 sequence (P42575 170-325 limits assumed): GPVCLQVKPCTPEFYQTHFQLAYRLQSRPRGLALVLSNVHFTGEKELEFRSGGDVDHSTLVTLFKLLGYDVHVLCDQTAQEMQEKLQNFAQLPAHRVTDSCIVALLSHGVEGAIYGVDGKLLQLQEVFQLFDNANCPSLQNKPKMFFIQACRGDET
T4 sequence (P42575 348-452 limits assumed): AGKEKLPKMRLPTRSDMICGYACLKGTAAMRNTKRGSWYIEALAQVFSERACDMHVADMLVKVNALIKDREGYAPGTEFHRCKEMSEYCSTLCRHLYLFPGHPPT

T1 sequence (Q14790 217-374 limits assumed): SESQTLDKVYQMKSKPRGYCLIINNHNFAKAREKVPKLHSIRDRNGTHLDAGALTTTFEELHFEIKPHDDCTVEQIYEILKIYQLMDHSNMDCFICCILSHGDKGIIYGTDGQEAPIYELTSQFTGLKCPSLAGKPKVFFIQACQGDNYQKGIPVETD
T1 sequence (Q14790 385-479 limits assumed): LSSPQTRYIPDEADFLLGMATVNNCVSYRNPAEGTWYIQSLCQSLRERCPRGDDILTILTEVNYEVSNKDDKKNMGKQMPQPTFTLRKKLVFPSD

kinact/Ki (caspase-8)	Proteolysis of Htt at amino acid 513 (caspase-3 site) (Caspase 3)	Inhibition of Caspase 3 cleavage of full-length huntingtin (blot) (Caspase 3)	Blocking the cleavage of Htt at amino acid 513 mediated by caspase-3 (Caspase 3)	kinact/Ki (caspase-6)	Inhibition of caspase-2 cleavage of full-length huntingtin (blot) (caspase-2)	Caspase-2 cleavage of Htt (caspase-2)	SMILES
82,850 ± 1,150 s^−1/M^−1	blocked	inhibition	affective at blocking	23,100 ± 1,900 s^−1/M^−1	slight inhibition	do not inhibit	C[C@@](NS(=O)(=O)Cc1ccccc1)(c1cn([C@@H](CC(=O)O)C(=O)COc2c(F)c(F)cc(F)c2F)nn1)C1CCCCC1 [MJL-001i]
30,650 ± 1,950 s^−1/M^−1	blocked	inhibition	affective at blocking	32,950 ± 1,650 s^−1/M^−1	–	do not inhibit	C[C@@](NC(=O)CCCC(=O)O)(c1cn([C@@H](CC(=O)O)C(=O)COc2c(F)c(F)cc(F)c2F)nn1)C1CCCCC1 [MJL-002i]
60,000 ± 2,800 s^−1/M^−1	blocked	inhibition	affective at blocking	45,750 ± 450 s^−1/M^−1	slight inhibition	do not inhibit	C[C@@](NC(=O)Cc1ccccc1)(c1cn([C@@H](CC(=O)O)C(=O)COc2c(F)c(F)cc(F)c2F)nn1)C1CCCCC1 [MJL-003i]
